Where two headings read alike, the source gives them in different places.
What was measured:
primary rat microglia [1] = assay: Cell toxicity (dead cells, size <150 μm2) in coated fibrin (cFib) assay;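 further: share of dead cells sized under 150 µm2 at 10 µM in fibrin-stimulated microglia HTS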
[2] = system: fibrin- and LPS-induced microglia activation; assay: cells; type: cell-based, rat
primary rat microglia [3] = assay: Cell toxicity (dead cells, size <150 μm2) in LPS assay
[4] = system: fibrin-induced microglia activation; assay: Image-based assay of fibrin-induced microglia activation (HTS and dose response); type: cell-based, rat; settings: for inhibition at 10 µM: Rattus norvegicus, Microglia, read-out: Fibrin % inhibition
[5] = system: LPS-induced microglia activation; assay: Image-based assay of LPS-induced microglia activation (HTS and dose response); type: cell-based, rat; settings: for inhibition at 10 µM: Rattus norvegicus, Microglia, read-out: LPS % inhibition
[6] = primary HTS, 10 μM, fibrin assay, dead cells size <150 μm2
[7] = primary HTS, 10 μM, LPS assay, dead cells size <150 μm2
[8] = primary HTS, 10 μM, fibrin-stimulated primary microglia
[9] = primary HTS, 10 μM, LPS-stimulated primary microglia
[10] = primary microglia HTS, fibrin stimulation, toxicity = cell size <150 μm2
[11] = quadrant by fibrin and LPS inhibition in HTS of 1907 compounds
[12] = primary microglia HTS, LPS stimulation, toxicity = cell size <150 μm2
[13] = primary microglia HTS, fibrin stimulation, activation = cell size >800 μm2
[14] = primary microglia HTS, LPS stimulation, activation = cell size >800 μm2
[15] = 48 h, primary microglia HTS, LPS stimulation, activation = cell size >800 μm2
[16] = primary microglia HTS, fibrin stimulation, decreased size (<150 μm^2) as marker of toxicity
[17] = primary microglia HTS, LPS stimulation, decreased size (<150 μm^2) as marker of toxicity
[18] = primary microglia HTS, fibrin stimulation, increased cell size (>800 μm^2) as marker of activation
[19] = 48 h, primary microglia HTS, LPS stimulation, increased cell size (>800 μm^2) as marker of activation
[20] = primary microglia HTS, 10 μM, fibrin assay, cell size <150 μm^2 as marker of toxicity
[21] = HTS of 1907 compounds, quadrant by fibrin and LPS inhibition
[22] = primary microglia HTS, 10 μM, LPS assay, cell size <150 μm^2 as marker of toxicity
[23] = primary microglia HTS, 10 μM, fibrin-stimulated, cell size >800 μm^2 as marker of activation
[24] = primary microglia HTS, 10 μM, LPS-stimulated, cell size >800 μm^2 as marker of activation

COc1cc2c(cc1OC)[C@@]13CCN4CC5=CCO[C@H]6CC(=O)N2[C@H]1[C@H]6[C@H]5C[C@H]43 [Brucine]
Fibrin % cell toxicity (primary rat microglia [1]; [6]): 1% | Quadrant (FIG. 5b) ([2]; primary HTS, 10 μM): Q4 | LPS % cell toxicity (primary rat microglia [3]; [7]): 0% | inhibition at 10 µM [4, 8]: 6% | inhibition at 10 µM [5, 9]: 13%

COc1cc(/C=C/C(N)=O)cc(OC)c1OC [Cintriamide]
Fibrin % cell toxicity (primary rat microglia [1]; [6]): 1% | Quadrant (FIG. 5b) ([2]; primary HTS, 10 μM): Q4 | LPS % cell toxicity (primary rat microglia [3]; [7]): 0% | inhibition at 10 µM [4, 8]: -2% | inhibition at 10 µM [5, 9]: 15%

C[C@](N)(Cc1ccc(O)c(O)c1)C(=O)O [L-alpha-methyl Dopa, Methyldopa]
Fibrin % cell toxicity (primary rat microglia [1]; [10]): 0% | Quadrant (FIG. 5b) [2, 11]: Q4 | LPS % cell toxicity (primary rat microglia [3]; [12]): 0% | Fibrin % inhibition [4, 13]: 4% | LPS % inhibition [5, 14]: 15%

Cc1c(OCC(F)(F)F)ccnc1C[S+]([O-])c1nc2ccccc2[nH]1 (stereo not shown) [Lansoprazole]
Fibrin % cell toxicity (primary rat microglia [1]; [10]): 0% | Quadrant (FIG. 5b) [2, 11]: Q4 | LPS % cell toxicity (primary rat microglia [3]; [12]): 0% | inhibition at 10 µM [4, 13]: 3% | inhibition at 10 µM [5, 15]: 15%

COC(=O)C1=C(C)NC(C)=C(C(=O)OCCN(C)Cc2ccccc2)C1c1cccc([N+](=O)[O-])c1 (stereo not shown) [Nicardipine]
Fibrin % cell toxicity (primary rat microglia [1]; [16]): 0% | Quadrant (FIG. 5b) [2, 11]: Q4 | LPS % cell toxicity (primary rat microglia [3]; [17]): 0% | inhibition at 10 µM [4, 18]: 11% | inhibition at 10 µM [5, 19]: 12%

Clc1cc(Cl)c(OCC#CI)cc1Cl [Haloprogin]
Fibrin % cell toxicity (primary rat microglia [1]; [16]): 42% | Quadrant (FIG. 5b) [2, 11]: Q2 | LPS % cell toxicity (primary rat microglia [3]; [17]): 70% | inhibition at 10 µM [4, 18]: 78% | inhibition at 10 µM [5, 19]: 106%

CC(=O)O[C@H]1C[C@@H]2CC[C@@H]3[C@H](CC[C@@]4(C)[C@H]3C[C@H]([N+]3(C)CCCCC3)[C@@H]4OC(C)=O)[C@@]2(C)C[C@@H]1N1CCCCC1 [Vecuronium]
Fibrin % cell toxicity (primary rat microglia [1]; [20]): 1% | Quadrant (FIG. 5b) [2, 21]: Q4 | LPS % cell toxicity (primary rat microglia [3]; [22]): 1% | Fibrin % inhibition [4, 23]: −24% | LPS % inhibition [5, 24]: 0%

CC(c1cc2ccccc2s1)N(O)C(N)=O (stereo not shown) [Zileuton]
Fibrin % cell toxicity (primary rat microglia [1]; [20]): 0% | Quadrant (FIG. 5b) [2, 21]: Q4 | LPS % cell toxicity (primary rat microglia [3]; [22]): 0% | inhibition at 10 µM [4, 23]: -12% | inhibition at 10 µM [5, 24]: 21%

Polymyxin B Sulfate
Fibrin % cell toxicity (primary rat microglia [1]; [16]): 1% | Quadrant (FIG. 5b) [2, 11]: Q1 | LPS % cell toxicity (primary rat microglia [3]; [17]): 2% | Fibrin % inhibition [4, 18]: −25% | LPS % inhibition ([5]; primary microglia HTS, LPS stimulation, increased cell size (>800 μm^2) as marker of activation): 76%

Oc1c(Cl)cc(Cl)c(Cl)c1Cc1c(O)c(Cl)cc(Cl)c1Cl [Hexachlorophene]
Fibrin % cell toxicity (primary rat microglia [1]; [10]): 0% | Quadrant (FIG. 5b) [2, 11]: Q4 | LPS % cell toxicity (primary rat microglia [3]; [12]): 0% | inhibition at 10 µM [4]: -19% | inhibition at 10 µM ([5]; 48 h): 15%

C[N+](C)(C)CCOC(N)=O [Carbachol]
Fibrin % cell toxicity (primary rat microglia [1]; [6]): 1% | Quadrant (FIG. 5b) ([2]; primary HTS, 10 μM): Q4 | LPS % cell toxicity (primary rat microglia [3]; [7]): 0% | inhibition at 10 µM [4, 8]: -18% | inhibition at 10 µM [5, 9]: 6%

C[C@@H]1C/C=C/C=C/C=C/C=C/[C@H](O[C@@H]2O[C@H](C)[C@@H](O)[C@H](N)[C@@H]2O)C[C@@H]2O[C@](O)(C[C@@H](O)C[C@H]3O[C@@H]3/C=C/C(=O)O1)C[C@H](O)[C@H]2C(=O)O [Natamycin]
Fibrin % cell toxicity (primary rat microglia [1]; [16]): 1% | Quadrant (FIG. 5b) [2, 11]: Q4 | LPS % cell toxicity (primary rat microglia [3]; [17]): 0% | inhibition at 10 µM [4, 18]: -7% | inhibition at 10 µM [5, 19]: 35%

N=C(N)N [Guanidine]
Fibrin % cell toxicity (primary rat microglia [1]; [10]): 0% | Quadrant (FIG. 5b) [2, 11]: Q4 | LPS % cell toxicity (primary rat microglia [3]; [12]): 0% | inhibition at 10 µM [4, 13]: -32% | inhibition at 10 µM [5, 15]: -1%

CCCc1nc(C(C)(C)O)c(C(=O)O)n1Cc1ccc(-c2ccccc2-c2nnn[nH]2)cc1 [Olmesartan]
Fibrin % cell toxicity (primary rat microglia [1]; [16]): 0% | Quadrant (FIG. 5b) [2, 11]: Q4 | LPS % cell toxicity (primary rat microglia [3]; [17]): 0% | inhibition at 10 µM [4, 18]: -13% | inhibition at 10 µM [5, 19]: 18%

Cc1cccc(C)c1NC(=O)C(C)N (stereo not shown) [Tocainide]
Fibrin % cell toxicity (primary rat microglia [1]; [20]): 1% | Quadrant (FIG. 5b) [2, 21]: Q4 | LPS % cell toxicity (primary rat microglia [3]; [22]): 0% | inhibition at 10 µM [4, 23]: -25% | inhibition at 10 µM [5, 24]: 0%

O=C(O[C@H]1C[C@H]2CC[C@@H](C1)[N+]21CCCC1)C(O)(c1ccccc1)c1ccccc1 [Trospium Chloride]
Fibrin % cell toxicity (primary rat microglia [1]; [20]): 0% | Quadrant (FIG. 5b) [2, 21]: Q4 | LPS % cell toxicity (primary rat microglia [3]; [22]): 1% | inhibition at 10 µM [4, 23]: -39% | inhibition at 10 µM [5, 24]: 9%

Nc1nc(F)nc2c1ncn2[C@@H]1O[C@H](COP(=O)(O)O)[C@@H](O)[C@@H]1O [Fludarabine Phosphate]
Fibrin % cell toxicity (primary rat microglia [1]; [10]): 1% | Quadrant (FIG. 5b) [2, 11]: Q4 | LPS % cell toxicity (primary rat microglia [3]; [12]): 0% | inhibition at 10 µM [4, 13]: 1% | inhibition at 10 µM [5, 15]: 11%

COc1ccccc1OCC(O)CO (stereo not shown) [Guaifenesin]
Fibrin % cell toxicity (primary rat microglia [1]; [10]): 0% | Quadrant (FIG. 5b) [2, 11]: Q4 | LPS % cell toxicity (primary rat microglia [3]; [12]): 0% | inhibition at 10 µM [4, 13]: -15% | inhibition at 10 µM [5, 15]: 11%

COC(=O)Nc1nc2ccc([S+]([O-])c3ccccc3)cc2[nH]1 (stereo not shown) [Oxfendazole]
Fibrin % cell toxicity (primary rat microglia [1]; [16]): 0% | Quadrant (FIG. 5b) [2, 11]: Q4 | LPS % cell toxicity (primary rat microglia [3]; [17]): 1% | inhibition at 10 µM [4, 18]: 10% | inhibition at 10 µM [5, 19]: 20%

COc1cc(C(=O)N2CCOCC2)cc(OC)c1OC [Trimetozine]
Fibrin % cell toxicity (primary rat microglia [1]; [20]): 1% | Quadrant (FIG. 5b) [2, 21]: Q4 | LPS % cell toxicity (primary rat microglia [3]; [22]): 0% | inhibition at 10 µM [4, 23]: 2% | inhibition at 10 µM [5, 24]: 12%

CCNC(=O)[C@@H]1CCCN1C(=O)[C@H](CCCNC(=N)N)NC(=O)[C@H](CC(C)C)NC(=O)[C@@H](CC(C)C)NC(=O)[C@H](Cc1ccc(O)cc1)NC(=O)[C@H](CO)NC(=O)[C@H](Cc1c[nH]c2ccccc12)NC(=O)[C@H](Cc1c[nH]cn1)NC(=O)[C@@H]1CCC(=O)N1 [Leuprolide]
Fibrin % cell toxicity (primary rat microglia [1]; [10]): 1% | Quadrant (FIG. 5b) [2, 11]: Q4 | LPS % cell toxicity (primary rat microglia [3]; [12]): −1% | Fibrin % inhibition [4, 13]: 5% | LPS % inhibition [5, 14]: −3%

CC(C)(C)NCC(O)c1ccccc1Cl.Cl (stereo not shown) [Tulobuterol, Tulobuterol Hydrochloride]
Fibrin % cell toxicity (primary rat microglia [1]; [20]): 0% | Quadrant (FIG. 5b) [2, 21]: Q4 | LPS % cell toxicity (primary rat microglia [3]; [22]): 0% | Fibrin % inhibition [4, 23]: 21% | LPS % inhibition [5, 24]: 36%

CC(=O)Oc1cc(C(C)C)c(OCCN(C)C)cc1C [Moxisylyte]
Fibrin % cell toxicity (primary rat microglia [1]; [16]): 0% | Quadrant (FIG. 5b) [2, 11]: Q4 | LPS % cell toxicity (primary rat microglia [3]; [17]): 0% | inhibition at 10 µM [4, 18]: -22% | inhibition at 10 µM [5, 19]: 3%

NCc1ccccc1CC(=O)N[C@@H]1C(=O)N2C(C(=O)O)=C(CSc3nnnn3CC(=O)O)CS[C@H]12 [Ceforanide]
Fibrin % cell toxicity (primary rat microglia [1]; [6]): 1% | Quadrant (FIG. 5b) ([2]; primary HTS, 10 μM): Q4 | LPS % cell toxicity (primary rat microglia [3]; [7]): 1% | inhibition at 10 µM [4, 8]: -2% | inhibition at 10 µM [5, 9]: 14%

CCCCN1C[C@H](O)[C@@H](O)[C@H](O)[C@H]1CO [Miglustat]
Fibrin % cell toxicity (primary rat microglia [1]; [16]): 1% | Quadrant (FIG. 5b) [2, 11]: Q4 | LPS % cell toxicity (primary rat microglia [3]; [17]): 0% | inhibition at 10 µM [4, 18]: -6% | inhibition at 10 µM [5, 19]: 0%

NS(=O)(=O)c1ccc(C(=O)O)cc1 [Carzenide]
Fibrin % cell toxicity (primary rat microglia [1]; [6]): 1% | Quadrant (FIG. 5b) ([2]; primary HTS, 10 μM): Q4 | LPS % cell toxicity (primary rat microglia [3]; [7]): 0% | inhibition at 10 µM [4, 8]: -24% | inhibition at 10 µM [5, 9]: 14%

Source: patent US20210330611A1, “THERAPY FOR NEUROLOGICAL DISEASES/DISORDERS” (priority 2020, published 2021)
